Source: ChEMBL document CHEMBL1201862, “PubChem BioAssay data set” (2004)
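48-hour exposure; five concentrations; linearly interpolated endpoints. The concentration for 50% growth inhibition is given as GI50.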 Activity calls are given as the source filed them. Cut-off read from the data, not from the text of the source: active = GI50 up to about 1.1 µM and inactive = higher.

How the values were obtained:
Assay in all cases: DTP human tumour cell line panel, 48 h
SK-MEL-2 = test system: SK-MEL-2
NCI-H522 = test system: NCI-H522
CAKI-1 = test system: CAKI-1
LOX IMVI = test system: LOX IMVI
UACC-62 = test system: UACC-62
TK-10 = test system: TK-10
BT-549 = test system: BT-549
MDA-MB-231 = test system: MDA-MB-231
HT-29 = test system: HT-29
MCF7 = test system: MCF7
COLO 205 = test system: COLO 205
MDA-N = test system: MDA-N
EKVX = test system: EKVX
HL-60 = test system: HL-60
HOP-62 = test system: HOP-62
T47D = test system: T47D
OVCAR-4 = test system: OVCAR-4
HCT-116 = test system: HCT-116
U-251 = test system: U-251
RPMI-8226 = test system: RPMI-8226
CCRF-CEM = test system: CCRF-CEM
UO-31 = test system: UO-31
SW-620 = test system: SW-620
NCI-H460 = test system: NCI-H460
HCC 2998 = test system: HCC 2998
SNB-19 = test system: SNB-19
SF-268 = test system: SF-268
ACHN = test system: ACHN
SK-MEL-5 = test system: SK-MEL-5
NCI/ADR-RES = test system: NCI/ADR-RES
PC-3 = test system: PC-3
KM12 = test system: KM12
Hs-578T = test system: Hs-578T
OVCAR-3 = test system: OVCAR-3
IGROV-1 = test system: IGROV-1
K562 = test system: K562
SF-295 = test system: SF-295
SK-OV-3 = test system: SK-OV-3
UACC-257 = test system: UACC-257
SN12C = test system: SN12C
HOP-92 = test system: HOP-92
NCI-H226 = test system: NCI-H226
HCT-15 = test system: HCT-15
MOLT-4 = test system: MOLT-4
786-0 = test system: 786-0
A498 = test system: A498
SK-MEL-28 = test system: SK-MEL-28
Malme-3M = test system: Malme-3M
SNB-75 = test system: SNB-75
DU-145 = test system: DU-145
SF-539 = test system: SF-539
A549 = test system: A549
RXF 393 = test system: RXF 393
NCI-H23 = test system: NCI-H23
OVCAR-5 = test system: OVCAR-5
MDA-MB-435 = test system: MDA-MB-435
OVCAR-8 = test system: OVCAR-8
M14 = test system: M14

CC(=O)N(C(=O)CC(=O)N1N=C(c2ccccc2)C(/N=N/c2ccccc2[N+](=O)[O-])C1=O)c1ccc(Cl)cc1 (stereo not drawn) was tested, and the GI50 (SK-MEL-2) was > 10 µM (inactive), the GI50 (NCI-H522) was > 10 µM (inactive) and the GI50 (CAKI-1) was > 10 µM (inactive). For the same compound, the GI50 (LOX IMVI) was > 10 µM (inactive), the GI50 (UACC-62) was > 10 µM (inactive) and the GI50 (TK-10) was > 10 µM (inactive). For the same compound, the GI50 (BT-549) was > 10 µM (inactive), the GI50 (MDA-MB-231) was > 10 µM (inactive) and the GI50 (HT-29) was > 10 µM (inactive). The GI50 (MCF7) was > 10 µM (inactive), the GI50 (COLO 205) was > 10 µM (inactive) and the GI50 (MDA-N) was > 10 µM (inactive). The GI50 (EKVX) was > 10 µM (inactive), the GI50 (HL-60) was > 10 µM (inactive) and the GI50 (HOP-62) was > 10 µM (inactive). The GI50 (T47D) was > 10 µM (inactive), the GI50 (OVCAR-4) was > 10 µM (inactive) and the GI50 (HCT-116) was > 10 µM (inactive). The GI50 (U-251) was > 10 µM (inactive), the GI50 (RPMI-8226) was > 10 µM (inactive) and the GI50 (CCRF-CEM) was > 10 µM (inactive). The GI50 (UO-31) was > 10 µM (inactive), the GI50 (SW-620) was > 10 µM (inactive) and the GI50 (NCI-H460) was > 10 µM (inactive). For the same compound, the GI50 (HCC 2998) was > 10 µM (inactive), the GI50 (SNB-19) was > 10 µM (inactive) and the GI50 (SF-268) was > 10 µM (inactive). The GI50 (ACHN) was > 10 µM (inactive), the GI50 (SK-MEL-5) was > 10 µM (inactive) and the GI50 (NCI/ADR-RES) was > 10 µM (inactive). The GI50 (PC-3) was > 10 µM (inactive), the GI50 (KM12) was > 10 µM (inactive) and the GI50 (Hs-578T) was > 10 µM (inactive). For the same compound, the GI50 (OVCAR-3) was > 10 µM (inactive), the GI50 (IGROV-1) was > 10 µM (inactive) and the GI50 (K562) was > 10 µM (inactive). The GI50 (SF-295) was > 10 µM (inactive), the GI50 (SK-OV-3) was > 10 µM (inactive) and the GI50 (UACC-257) was > 10 µM (inactive). For the same compound, the GI50 (SN12C) was > 10 µM (inactive), the GI50 (HOP-92) was > 10 µM (inactive) and the GI50 (NCI-H226) was > 10 µM (inactive). The GI50 (HCT-15) was > 10 µM, the GI50 (MOLT-4) was > 10 µM (inactive) and the GI50 (786-0) was > 10 µM (inactive). The GI50 (A498) was > 10 µM (inactive), the GI50 (SK-MEL-28) was > 10 µM (inactive) and the GI50 (Malme-3M) was > 10 µM (inactive). The GI50 (SNB-75) was 9.55 µM (inactive), the GI50 (DU-145) was > 10 µM (inactive) and the GI50 (SF-539) was > 10 µM (inactive). For the same compound, the GI50 (A549) was > 10 µM (inactive), the GI50 (RXF 393) was > 10 µM (inactive) and the GI50 (NCI-H23) was > 10 µM (inactive). For the same compound, the GI50 (OVCAR-5) was > 10 µM (inactive), the GI50 (MDA-MB-435) was > 10 µM (inactive) and the GI50 (OVCAR-8) was > 10 µM (inactive).

In the case of CC1=NCCN=C(C)C1/N=N/c1ccc2[nH]c(C)nc2c1, the GI50 (SK-MEL-2) is reported as 19.2 µM (inactive), the GI50 (NCI-H522) is reported as 17.4 µM (inactive) and the GI50 (CAKI-1) is reported as 18.5 µM (inactive). The GI50 (LOX IMVI) was 20.7 µM (inactive), the GI50 (UACC-62) was 14.2 µM (inactive) and the GI50 (TK-10) was 19.7 µM (inactive). The GI50 (BT-549) was 9.08 µM (inactive), the GI50 (MDA-MB-231) was 12.7 µM (inactive) and the GI50 (HT-29) was 12.6 µM (inactive). The GI50 (MCF7) was 5.75 µM (inactive), the GI50 (COLO 205) was 15.2 µM (inactive) and the GI50 (MDA-N) was 10.2 µM (inactive). For the same compound, the GI50 (EKVX) was 15.8 µM (inactive), the GI50 (HL-60) was 3.54 µM (inactive) and the GI50 (HOP-62) was 22.1 µM (inactive). For the same compound, the GI50 (T47D) was 12.7 µM (inactive), the GI50 (OVCAR-4) was 12.4 µM (inactive) and the GI50 (HCT-116) was 13.2 µM (inactive). The GI50 (U-251) was 17.5 µM (inactive), the GI50 (RPMI-8226) was 3.11 µM (inactive) and the GI50 (CCRF-CEM) was 4.97 µM (inactive). The GI50 (SW-620) was 14.9 µM (inactive), the GI50 (NCI-H460) was 18.2 µM (inactive) and the GI50 (HCC 2998) was 14 µM (inactive). The GI50 (SNB-19) was 10 µM (inactive), the GI50 (SF-268) was 21.2 µM (inactive) and the GI50 (ACHN) was 15.6 µM (inactive). The GI50 (NCI/ADR-RES) was 12 µM (inactive), the GI50 (PC-3) was 6.03 µM (inactive) and the GI50 (KM12) was 11.7 µM (inactive). For the same compound, the GI50 (Hs-578T) was 23.3 µM (inactive), the GI50 (OVCAR-3) was 19.5 µM (inactive) and the GI50 (IGROV-1) was 25.9 µM (inactive). The GI50 (K562) was 4.83 µM (inactive), the GI50 (SF-295) was 13.2 µM (inactive) and the GI50 (SK-OV-3) was 19.1 µM (inactive). For the same compound, the GI50 (M14) was 3.57 µM (inactive), the GI50 (UACC-257) was 11.3 µM (inactive) and the GI50 (SN12C) was 11.7 µM (inactive). The GI50 (HOP-92) was 4.7 µM (inactive), the GI50 (NCI-H226) was 20.3 µM (inactive) and the GI50 (HCT-15) was 8.77 µM. For the same compound, the GI50 (MOLT-4) was 6.38 µM (inactive), the GI50 (786-0) was 11.7 µM (inactive) and the GI50 (A498) was 0.912 µM (active). For the same compound, the GI50 (SK-MEL-28) was 10.6 µM (inactive), the GI50 (Malme-3M) was 16 µM (inactive) and the GI50 (SNB-75) was 13.2 µM (inactive). For the same compound, the GI50 (DU-145) was 16.1 µM (inactive), the GI50 (SF-539) was 20.5 µM (inactive) and the GI50 (A549) was 6.19 µM (inactive). For the same compound, the GI50 (RXF 393) was 16.3 µM (inactive), the GI50 (NCI-H23) was 13.8 µM (inactive) and the GI50 (OVCAR-5) was 17.6 µM (inactive). The GI50 (MDA-MB-435) was 8.53 µM (inactive) and the GI50 (OVCAR-8) was 12.2 µM (inactive).
